Experiments:
[1] = tested on: Penicillium chrysogenum ΔhdfAΔ Pc18g05230; test: Compactin sensitivity of Penicillium chrysogenum strains, growth in liquid media; assay type: cell-based; details: mutant for Pc18g05230 (SEQ ID NO 1); liquid media with different amounts of compactin; 2 days of growth at 25 C
Protocol: (§1) Fungal growth was performed in a mineral medium, containing (g/L): glucose (5); lactose (35); urea (4.5); (NH4)2SO4 (1.1); Na2SO4 (2.9); KH2PO4 (5.2); K2HPO4 (4.8) and 10 mL/L of a trace element solution containing (in g/l): citric acid (150); FeSO4.7H2O (15); MgSO4.7H2O (150); H3BO3 (0.0075); CuSO4.5H2O (0.24); CoSO4.7H2O (0.375); ZnSO4.7H2O (5); MnSO4.H2O (2.28); CaCl2.2H2O (0.99); pH before sterilization 6.5. Oxoid agar was added at 15 g/l to solidify the medium.
(§2) Compactin was maintained as a stock solution at 20 g/L in ethanol at −20 C.
The gene Pc18g05230 was identified as a HMGR encoding gene. In order to prevent the transcription of this gene a selection marker gene was inserted between the promoter and the open reading frame (ORF). To this end the promoter and the ORF were PCR amplified using the oligonucleotides SEQ ID NO 5 plus 6 and SEQ ID NO 7 plus 8, respectively (see FIG. 1). Phusion Hot-Start Polymerase (Finnzymes) was used to amplify the fragments. The fragments obtained are 1539 and 2514 base pairs (bp) in length (SEQ ID NO 31 and SEQ ID NO 32) and contain a 14 bp tail suitable for the so-called STABY cloning method (Eurogentec). From the standard STABY vector, pSTC1.3, two derivatives were obtained. One, pSTamdSL (SEQ ID NO 39), was used for cloning the PCR amplified promoter (SEQ ID NO 31). […]

[2] = tested on: Penicillium chrysogenum ΔhdfAΔ Pc16g05060; test: as above; assay type: cell-based; details: mutant for Pc16g05060 (SEQ ID NO 9); liquid media with different amounts of compactin; 2 days of growth at 25 C
Protocol: as §1, §2
The gene Pc16g05060 was identified as a HMGR encoding gene. In order to prevent the transcription of this gene a selection marker gene was inserted between the promoter and the open reading frame (ORF). To this end the promoter and the ORF were PCR amplified using the oligonucleotides SEQ ID NO 13 plus 14 and SEQ ID NO 15 plus 16, respectively (see FIG. 1). Phusion Hot-Start Polymerase (Finnzymes) was used to amplify the fragments. The fragments obtained are 1539 and 1514 base pairs (bp) in length (SEQ ID NO 35 and SEQ ID NO 36) and contain a 14 bp tail suitable for the so-called STABY cloning method (Eurogentec).
Spores of the Penicillium chrysogenum mutants for both HMGR encoding genes, Pc18g05230 (SEQ ID NO 1) and Pc16g05060 (SEQ ID NO 9), were inoculated in liquid media with different amounts of compactin.

For CC[C@H](C)C(=O)O[C@H]1CCC=C2C=C[C@H](C)[C@H](CC[C@@H]3C[C@@H](O)CC(=O)O3)[C@H]21 [Compactin, compactin], the “compactin sensitivity of the mutant, in words” value [1] was “increased compactin sensitivity” and the “compactin sensitivity of the mutant, in words” value [2] was “increased compactin sensitivity”.
